Assay results: patent publication US7671026B2, “Cytomodulating peptides for treating interstitial cystitis” (Sangstat Medical Corporation, priority 2002, dated 2010)

Experiments:
TNF-α = experiment: Ex vivo LPS-stimulated bladder tissue culture, TNF-α ELISA; assay type: cell-based, mice; settings: first study; BALB/c bladder tissue, 1 ug LPS + RDP58 50 uM final, 18 hrs, each pool
Protocol: The ability of RDP58 peptide bc-1nL in inhibiting cytokine production in bladder cells was examined. In a first study, BALB/c mice were euthanized with CO2 and the bladders harvested after voiding it of urine. Bladders were gently washed with RMPI 1640 media containing penicillin and streptomycin and minced into 1-2 mm pieces. Equal amounts of tissue were incubated overnight at 37° C. in 0.5 ml of RPMI culture medium in the presence of 1 ug LPS (E. coli. 055:B5; Sigma), 50 ul of RDP58 peptide (1 mg/ml) (50 uM final concentration), 1 ug LPS+50 ul of RDP58 peptde, or media alone. The culture supernatants were collected after 18 hrs, clarified by centrifugation, and assayed by ELISA for cytokines TNF-αand IFN-γ.
In a second study, bladders from 12 normal mice were harvested, pooled into four sets of three bladders, and the tissues minced into 1-2 mm pieces. Equal amounts of tissue were incubated overnight in culture media containing LPS, RDP58 peptide, LPS+RDP58 peptide, or media, as described above. After clarifying the culture medium by centrifugation, supernatants were assayed for presence of TNF-α by ELISA.

CD3 positive cells = experiment: Chronic interstitial cystitis model, CD3/CD45 immunostaining of bladder sections; assay type: in vivo, mice; settings: animals exposed to LPS, then RDP58; 24 hrs and 72 hrs after RDP58 treatment
Protocol: Chronic IC model was induced in mice by transurethrally catheterizing mice and instilling with 15 ug of E.coli. lipopolysaccharide (LPS) in 150 ul. Controls were instilled with 150 ul of saline. Animals were treated three times per week for two weeks. To determine the effect of RDP58, animals were instilled with the peptide following 14 days of LPS instillation. Histological analyses of the bladders were carried out 24 or 72 hrs post treatment. Cytokine levels were assayed by removing the bladder 24 hrs following RDP58 treatment, culturing the tissue ex vivo, and assaying for cytokines, as described above. Bladder permeability used the FITC-dextran assay.
Bladder from the various animal groups were removed after the treatments and then sectioned. Morphology was examined by staining with haematoxylin-eosin. Sections were examined for the presence of T-cell differentiation markers CD3 or CD45 by immunostaining with anti-CD45 and anti-CD3 antibodies.

## Arg-nL-nL-nL-Arg-nL-nL-nL-Gly-Tyr [RDP58]
TNF-α
  inhibition of TNF-α production: about 30%
CD3 positive cells
  CD3 positive cells in bladder tissue sections: reduction of CD3 positive cells
